Counter-ions that a name gives are not always drawn.
Columns and labels:
Rat FAAH-1 = target: T1, Rat FAAH-1 (Rattus norvegicus, UniProt P97612); experiment: Assay Method 2: rat FAAH-1 assay, 3H-anandamide hydrolysis in homogenate of SK-N-MC cells transfected with rat FAAH
T1 sequence (P97612 1-579): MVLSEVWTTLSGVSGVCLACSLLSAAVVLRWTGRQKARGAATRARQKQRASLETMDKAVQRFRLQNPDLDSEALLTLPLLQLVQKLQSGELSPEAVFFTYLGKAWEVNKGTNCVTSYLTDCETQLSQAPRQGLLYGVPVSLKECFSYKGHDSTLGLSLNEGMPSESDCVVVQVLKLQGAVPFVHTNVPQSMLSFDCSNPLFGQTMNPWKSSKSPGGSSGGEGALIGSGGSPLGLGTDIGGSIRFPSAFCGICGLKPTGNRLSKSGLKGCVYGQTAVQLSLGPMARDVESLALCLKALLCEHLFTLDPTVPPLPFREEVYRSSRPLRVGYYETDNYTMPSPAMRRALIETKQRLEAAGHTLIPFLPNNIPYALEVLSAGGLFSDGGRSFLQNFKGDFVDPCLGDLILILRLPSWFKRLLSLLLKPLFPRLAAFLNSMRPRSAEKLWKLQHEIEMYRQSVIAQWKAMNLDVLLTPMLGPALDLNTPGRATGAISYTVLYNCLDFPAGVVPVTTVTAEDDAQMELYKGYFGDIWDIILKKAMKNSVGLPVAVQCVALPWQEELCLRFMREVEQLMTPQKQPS

FAAH = target: T2, FAAH (Homo sapiens, UniProt O00519); experiment: Assay Method 1: FAAH assay, 3H-anandamide hydrolysis in homogenate of T84 cells or SK-N-MC cells transfected with human FAAH
T2 sequence (O00519 1-579): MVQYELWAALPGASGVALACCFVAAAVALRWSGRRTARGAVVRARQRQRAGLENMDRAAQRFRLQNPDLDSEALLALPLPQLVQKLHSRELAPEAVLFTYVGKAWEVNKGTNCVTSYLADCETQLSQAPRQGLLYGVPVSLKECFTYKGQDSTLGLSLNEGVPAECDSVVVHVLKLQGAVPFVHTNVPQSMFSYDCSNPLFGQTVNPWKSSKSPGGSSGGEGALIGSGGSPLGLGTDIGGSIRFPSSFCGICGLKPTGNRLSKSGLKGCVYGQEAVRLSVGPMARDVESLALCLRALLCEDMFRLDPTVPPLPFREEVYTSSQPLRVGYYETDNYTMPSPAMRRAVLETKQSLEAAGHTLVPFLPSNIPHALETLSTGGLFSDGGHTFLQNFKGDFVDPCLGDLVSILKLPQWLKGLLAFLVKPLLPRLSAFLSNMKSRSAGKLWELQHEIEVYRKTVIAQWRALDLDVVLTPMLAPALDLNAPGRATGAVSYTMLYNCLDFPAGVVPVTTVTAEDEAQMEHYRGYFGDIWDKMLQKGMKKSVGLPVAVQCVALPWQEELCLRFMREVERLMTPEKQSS

Row | IC50 (Rat FAAH-1) [nM] | IC50 (FAAH) [nM] | Compound
1 | > 10000 | 765 | O[C@@H](CNc1cc(-c2ccc3cc[nH]c3c2)ncn1)c1ccccc1 [Example 53, (1R)-2-{[6-(1H-Indol-6-yl)pyrimidin-4-yl]amino}-1-phenylethanol trifluoroacetic acid salt]
2 | 1700 | 20 | Cn1c(-c2cc(NC[C@H](O)c3ccccc3)ncn2)cc2ccccc21 [Example 55, (1R)-2-{[6-(1-Methyl-1H-indol-2-yl)pyrimidin-4-yl]amino}-1-phenylethanol trifluoroacetic acid salt]
3 | 535 | 29 | O=C(c1ccccc1)c1ccc(-c2cc(NC[C@H](O)c3ccccc3)ncn2)cc1 [Example 57, [4-(6-{[(2R)-2-Hydroxy-2-phenylethyl]amino}pyrimidin-4-yl)phenyl](phenyl)methanone trifluoroacetic acid salt]
4 | 1000 | 307 | O[C@@H](CNc1cc(-c2ccc(F)c(F)c2)ncn1)c1ccccc1 [Example 59, (1R)-2-{[6-(3,4-Difluorophenyl)pyrimidin-4-yl]amino}-1-phenylethanol trifluoroacetic acid salt]
5 | 6000 | 38 | CN(C)c1ccc(-c2cc(NC[C@H](O)c3ccccc3)ncn2)cc1 [Example 65, (1R)-2-({6-[4-(Dimethylamino)phenyl]pyrimidin-4-yl}amino)-1-phenylethanol]
6 | 140 | 73 | CS(=O)(=O)c1ccc(-c2cc(NC[C@H](O)c3ccccc3)ncn2)cc1 [Example 66, (1R)-2-({6-[4-(Methylsulfonyl)phenyl]pyrimidin-4-yl}amino)-1-phenylethanol]
7 | 126 | 14 | CN(C)S(=O)(=O)c1ccc(-c2cc(NC[C@H](O)c3ccccc3)ncn2)cc1 [Example 76, 4-(6-{[(2R)-2-Hydroxy-2-phenylethyl]amino}pyrimidin-4-yl)-N,N-dimethylbenzenesulfonamide]
8 | 492 | 110 | NS(=O)(=O)c1ccc(-c2cc(NC[C@H](O)c3ccccc3)ncn2)cc1 [Example 81, 4-(6-{[(2R)-2-Hydroxy-2-phenylethyl]amino}pyrimidin-4-yl)benzenesulfonamide]
9 | 654 | 210 | O[C@@H](CNc1cc(-c2ccc(F)c(Cl)c2)ncn1)c1ccccc1 [Example 83, (1R)-2-{[6-(3-Chloro-4-fluorophenyl)pyrimidin-4-yl]amino}-1-Phenylethanol trifluoroacetic acid salt]
10 | 5000 | 18 | O[C@@H](CNc1cc(-c2ccc3[nH]ccc3c2)ncn1)c1ccccc1 [Example 85, (1R)-2-{[6-(1H-Indol-5-yl)pyrimidin-4-yl]amino}-1-phenylethanol trifluoroacetic acid salt]
11 | 1400 | 42 | O[C@@H](CNc1cc(-c2csc3ccccc23)ncn1)c1ccccc1 [Example 87, (1R)-2-{[6-(1-Benzothiophen-3-yl)pyrimidin-4-yl]amino}-1-phenylethanol trifluoroacetic acid salt]
12 | 33 | 65 | N#Cc1ccc(-c2cc(NC[C@H](O)c3ccccc3)ncn2)cc1F [Example 88, 2-Fluoro-4-(6-{[(2R)-2-hydroxy-2-phenylethyl]amino}pyrimidin-4-yl)benzonitrile trifluoroacetic acid salt]

Further lines, the molecule ahead of its results:

Row | Compound | IC50 (Rat FAAH-1) [nM] | IC50 (FAAH) [nM]
13 | O[C@@H](CNc1cc(-c2cc(F)c(F)c(F)c2)ncn1)c1ccccc1 [Example 54, (1R)-1-Phenyl-2-{[6-(3,4,5-trifluorophenyl)pyrimidin-4-yl]amino}ethanol trifluoroacetic acid salt] | 443 | 277
14 | Cc1ccc2sc(-c3cc(NC[C@H](O)c4ccccc4)ncn3)cc2c1 [Example 56, (1R)-2-{[6-(5-Methyl-1-benzothiophen-2-yl)pyrimidin-4-yl]amino}-1-phenylethanol] | 40 | 2
15 | O[C@@H](CNc1cc(-c2cc(F)cc(F)c2)ncn1)c1ccccc1 [Example 58, (1R)-2-{[6-(3,5-Difluorophenyl)pyrimidin-4-yl]amino}-1-phenylethanol trifluoroacetic acid salt] | 470 | 104
16 | CSc1nc(NC[C@H](O)c2ccccc2)cc(-c2ccc(C(F)(F)F)c(Cl)c2)n1 [Example 60, (1R)-2-({6-[3-Chloro-4-(trifluoromethyl)phenyl]-2-(methylsulfanyl)pyrimidin-4-yl}amino)-1-phenylethanol trifluoroacetic acid salt] | 28 | 6
17 | Nc1nc(NC[C@H](O)c2ccccc2)cc(-c2ccc(C(F)(F)F)c(Cl)c2)n1 [Example 61, (1R)-2-({2-Amino-6-[3-chloro-4-(trifluoromethyl)phenyl]pyrimidin-4-yl}amino)-1-phenylethanol trifluoroacetic acid salt] | 28 | 6
18 | O[C@@H](CNc1cc(-c2ccc(C(F)(F)F)c(Cl)c2)ncn1)c1ccc(F)cc1 [Example 62, (1R)-2-({6-[3-Chloro-4-(trifluoromethyl)phenyl]ivrimidin-4-yl}amino)-1-(4-fluorophenyl)ethanol] | 3 | 2
19 | COc1ccc(-c2cc(NC[C@H](O)c3ccccc3)ncn2)cn1 [Example 63, (1R)-2-{[6-(6-Methoxypyridin-3-yl)pyrimidin-4-yl]amino}-1-phenylethanol] | 2000 | 450
20 | CCOc1ccc(-c2cc(NC[C@H](O)c3ccccc3)ncn2)cn1 [Example 64, (1R)-2-{[6-(6-Ethoxypyridin-3-yl)pyrimidin-4-yl]amino}-1-phenylethanol] | 220 | 50
21 | O[C@@H](CNc1cc(-c2cnc(N3CCOCC3)nc2)ncn1)c1ccccc1 [Example 69, (1R)-2-[(2′-Morpholin-4-yl-4,5′-bipyrimidin-6-yl)amino]-1-phenylethanol] | > 10000 | 900
22 | O[C@@H](CNc1cc(-c2ccc(N3CCOCC3)nc2)ncn1)c1ccccc1 [Example 70, (1R)-2-{[6-(6-Morpholin-4-ylpyridin-3-yl)pyrimidin-4-yl]amino}-1-Phenylethanol] | > 10000 | 800
23 | COc1ccc(-c2cc(NC[C@H](O)c3ccccc3)ncn2)cc1F [Example 71, (1R)-2-{[6-(3-Fluoro-4-methoxyphenyl)pyrimidin-4-yl]amino}-1-pPhenylethanol] | 76 | 14
24 | Cc1nc(NC[C@H](O)c2ccccc2)cc(-c2ccc(C(F)(F)F)c(Cl)c2)n1 [Example 73, (1R)-2-({6-[3-Chloro-4-(trifluoromethyl)phenyl]-2-methylpyrimidin-4-yl}amino)-1-phenylethanol] | 40 | 20
25 | N#Cc1ccc(-c2cc(NC[C@H](O)c3ccccc3)ncn2)cn1 [Example 77, 5-(6-{[(2R)-2-Hydroxy-2-phenylethyl]amino}pyrimidin-4-yl)pyridine-2-carbonitrile] | 2200 | 1000
26 | CN(C)c1ccc(-c2cc(NC[C@H](O)c3ccccc3)ncn2)cn1 [Example 78, (1R)-2-({6-[6-(Dimethylamino)pyridin-3-yl]pyrimidin-4-yl}amino)-1-phenylethanol] | > 10000 | 633
27 | O=S(=O)(c1ccc(-c2cc(NC[C@H](O)c3ccccc3)ncn2)cc1)N1CCCCC1 [Example 79, (1R)-1-Phenyl-2-({6-[4-(piperidin-1-ylsulfonyl)phenyl]pyrimidin-4-yl}amino)ethanol] | 530 | 542
28 | O=S(=O)(c1ccc(-c2cc(NC[C@H](O)c3ccccc3)ncn2)cc1)N1CCCC1 [Example 80, (1R)-1-Phenyl-2-({6-[4-(Pyrrolidin-1-ylsulfonyl)phenyl]pyrimidin-4-yl}amino)ethanol] | 665 | 68
29 | CSc1cccc(-c2cc(NC[C@H](O)c3ccccc3)ncn2)c1 [Example 84, (1R)-2-({6-[3-(Methylsulfanyl)phenyl]pyrimidin-4-yl}amino)-1-phenylethanol trifluoroacetic acid salt] | 965 | 44
